Calls of active or inactive are those of the source. The calls are words filed in the database; no cut-off is given here.
Key:
[1] = target: T1, Growth factor receptor-bound protein 2 (Homo sapiens, UniProt P62993); experiment: Displacement of biotin-Ahx-PSpYVNVQN peptide from GST fused Grb2 SH2 domain by ELISA
[2] = target: T1, Growth factor receptor-bound protein 2; experiment: Inhibition of Grb2 by ELISA

| Activity [1] | SMILES | other results |
| --- | --- | --- |
| – | NC(=O)CNc1nc(Nc2ccc(OP(=O)(O)O)cc2)nc(-c2ccccc2Oc2ccc(OP(=O)(O)O)cc2)n1 | IC50 [1]: 265 µM |
| inactive | Cc1cc(-c2cccc(Oc3ccc(OP(=O)(O)O)cc3)c2)nc(Nc2ccc(-c3nn[nH]n3)cc2)n1 | – |
| – | Cc1ccc(OC(C)(C)C(=O)N[C@@H](Cc2ccc(OP(=O)(O)O)cc2)C(=O)N[C@@](C)(Cc2ccc(OP(=O)(O)O)cc2)C(=O)N[C@@H](CC(N)=O)C(N)=O)c(/N=N/c2ccccc2)c1 | IC50 [2]: 0.011 µM |
| inactive | NC(=O)CNc1nc(Nc2ccc(OP(=O)(O)O)cc2)nc(-c2cccc(Oc3ccc(OP(=O)(O)O)cc3)c2)n1 | – |
